Results published in PubChem BioAssay AID1919014 (Molecular Pharmacology Branch, DTP, NCI, 2023).

System: NCI-H1341 complex spheroids, percent test/control
Assay: Anticancer human tumor NCI-H1341 cell line growth inhibition [AhR];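 further: spheroids exposed to agents for seven days before readout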
Conditions: for IC50: curve of first compound; for viability, T/C: stronger effect = lower value
Summary of the method: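 Agents were dosed in half-log steps down from roughly clinical Cmax, or from 10 microM where Cmax was unknown, alone and with AhR antagonists. Read-out: percent test/control growth of tumor spheroids containing HUVEC and MSC stromal cells.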

[1] = second compound 0.1 µM, first compound 0.0316 µM
[2] = second compound 0.1 µM, first compound 0.1 µM
[3] = second compound 0.1 µM, first compound 0.316 µM
[4] = second compound 0.1 µM, first compound 1 µM
[5] = second compound 0.316 µM, first compound 0.0316 µM
[6] = second compound 0.316 µM, first compound 0.1 µM
[7] = second compound 0.316 µM, first compound 0.316 µM
[8] = second compound 0.316 µM, first compound 1 µM
[9] = second compound 1 µM, first compound 0.0316 µM
[10] = second compound 1 µM, first compound 0.1 µM
[11] = second compound 1 µM, first compound 0.316 µM
[12] = second compound 1 µM, first compound 1 µM
[13] = second compound 3.16 µM, first compound 0.0316 µM
[14] = second compound 3.16 µM, first compound 0.1 µM
[15] = second compound 3.16 µM, first compound 0.316 µM
[16] = second compound 3.16 µM, first compound 1 µM
[17] = second compound 10 µM, first compound 0.0316 µM
[18] = second compound 10 µM, first compound 0.1 µM
[19] = second compound 10 µM, first compound 0.316 µM
[20] = second compound 10 µM, first compound 1 µM

IC50 (second compound 0.1 µM) [nM]	IC50 (second compound 0.316 µM) [nM]	IC50 (second compound 1 µM) [nM]	IC50 (second compound 3.16 µM) [nM]	IC50 (second compound 10 µM) [nM]	SMILES	viability, T/C [1] [%]	viability, T/C [2] [%]	viability, T/C [3] [%]	viability, T/C [4] [%]	viability, T/C [5] [%]	viability, T/C [6] [%]	viability, T/C [7] [%]	viability, T/C [8] [%]	viability, T/C [9] [%]	viability, T/C [10] [%]	viability, T/C [11] [%]	viability, T/C [12] [%]	viability, T/C [13] [%]	viability, T/C [14] [%]	viability, T/C [15] [%]	also measured
41.3	31.5	35.4	31	< 3.16	CC1COCCN1c1cc(-c2ccnn2C)c2ccnc(-c3ccn[nH]3)c2n1 (stereo not given) + Cc1cncc(-c2nc(NCCc3c[nH]c4ccccc34)c3ncn(C(C)C)c3n2)c1	57.8	25.1	25.7	17.8	49.8	26.8	19.8	18.7	51.6	26.8	23.9	16.7	50	32.1	24.8	viability, T/C (second compound 0.1 µM, first compound 0.00316 µM): 95.1%; viability, T/C (second compound 0.1 µM, first compound 0.01 µM): 97%; viability, T/C (second compound 0.316 µM, first compound 0.00316 µM): 79.9%; viability, T/C (second compound 0.316 µM, first compound 0.01 µM): 94.4%; viability, T/C (second compound 1 µM, first compound 0.00316 µM): 77.5%; viability, T/C (second compound 1 µM, first compound 0.01 µM): 79.4%; viability, T/C (second compound 3.16 µM, first compound 0.00316 µM): 76%; viability, T/C (second compound 3.16 µM, first compound 0.01 µM): 66.2%; viability, T/C [16]: 16.9%; viability, T/C (second compound 10 µM, first compound 0.00316 µM): 21%; viability, T/C (second compound 10 µM, first compound 0.01 µM): 19%; viability, T/C [17]: 16.5%; viability, T/C [18]: 15.2%; viability, T/C [19]: 12.2%; viability, T/C [20]: 10.1%
3650	1970	3450	1820	< 31.6	CC1COCCN1c1cc(C2(S(C)(=N)=O)CC2)nc(-c2ccnc3[nH]ccc23)n1 (stereo not given) + Cc1cncc(-c2nc(NCCc3c[nH]c4ccccc34)c3ncn(C(C)C)c3n2)c1	81.4	85.2	71.1	71.5	87.9	84.1	75.1	62.1	89.9	83.6	70.3	75.1	54.7	66.3	65.6	viability, T/C (second compound 0.1 µM, first compound 3.16 µM): 54.6%; viability, T/C (second compound 0.1 µM, first compound 10 µM): 21.9%; viability, T/C (second compound 0.316 µM, first compound 3.16 µM): 41.6%; viability, T/C (second compound 0.316 µM, first compound 10 µM): 20.6%; viability, T/C (second compound 1 µM, first compound 3.16 µM): 51.7%; viability, T/C (second compound 1 µM, first compound 10 µM): 22.8%; viability, T/C [16]: 62.9%; viability, T/C (second compound 3.16 µM, first compound 3.16 µM): 38.5%; viability, T/C (second compound 3.16 µM, first compound 10 µM): 25.6%; viability, T/C [17]: 40.5%; viability, T/C [18]: 30.7%; viability, T/C [19]: 39.2%; viability, T/C [20]: 29.1%; viability, T/C (second compound 10 µM, first compound 3.16 µM): 26.3%; viability, T/C (second compound 10 µM, first compound 10 µM): 13.9%
